Test results: US20230148599A1, “FUNGICIDAL MIXTURES CONTAINING PYRAZOLE DERIVATIVES” (FMC Corporation, priority 2020, published 2023)

Experiments:
Assay type in all cases: in vivo
Conditions in all cases: 50 ppm, 100 = 100% disease control, 0 = no control
Phakopsora pachyrhizi = test: Test D: Asian soybean rust, preventive spray on soybean seedlings
Procedure, shortened: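 Compounds in acetone/water (50/50) with 250 ppm PEG400, dosed in ppm, sprayed to run-off on soybean seedlings; inoculated with P. pachyrhizi spores next day. Held 24 h at 22 °C in saturated air, then 8 days at 22 °C; visual rating of disease control, 0–100, relative to untreated controls.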

[1] = system: Puccinia recondita f. sp. tritici; test: Test B: wheat leaf rust, preventive spray on wheat seedlings
Procedure, shortened: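 Preventive test: compound in acetone/water 50/50 with 250 ppm PEG400 was sprayed onto wheat seedlings one day before inoculation with leaf rust spores. After 24 h in saturated air and 7 days in a growth chamber, both at 20 °C, disease control was scored from 0 to 100 against controls.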

Botrytis cinerea = test: Test E: tomato Botrytis, preventive spray on tomato seedlings
Procedure, shortened: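 Preventive test: seedlings sprayed to run-off with compound in acetone/water (50/50) plus 250 ppm PEG400, inoculated one day later with B. cinerea spores. Held 48 h saturated at 20° C, then 3 days at 24° C; disease control scored visually from 0 to 100 versus controls.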

[2] = system: Blumeria graminis f. sp. tritici; test: Test C: wheat powdery mildew, preventive spray on wheat seedlings
Procedure, shortened: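 Preventive test: inoculation with spore dust came one day after spraying seedlings to run-off with ppm suspensions in acetone/water (50/50) plus 250 ppm PEG400 surfactant. Visual ratings after 8 days' incubation at 20° C give percent disease control relative to controls.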

Alternaria solani = test: Test F: tomato early blight, preventive spray on tomato seedlings
Procedure, shortened: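 Preventive test: one day after the compound spray, seedlings were inoculated with A. solani, incubated saturated at 27 °C for 48 h, then kept at 20 °C for 3 days. Test suspensions contained acetone/water 50/50 with 250 ppm PEG400 surfactant. Visual ratings run from 0 (no control) to 100 (full control).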

Septoria tritici = test: Test A: wheat leaf blotch, preventive spray on wheat seedlings
Procedure, shortened: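 Preventive test: one day after spraying seedlings to run-off (concentrations in ppm; acetone/water, 250 ppm PEG400), Septoria tritici spores applied. Scored after 48 h humid incubation at 24 °C plus 17 days at 20 °C, as percent disease control versus untreated controls (100 = full control).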

Structure (SMILES) | Test D disease control rating (Phakopsora pachyrhizi) [%] | Test B disease control rating [1] [%] | Test E disease control rating (Botrytis cinerea) [%] | Test C disease control rating [2] [%] | Test F disease control rating (Alternaria solani) [%] | Test A disease control rating (Septoria tritici) [%]
COc1cc(F)c(-c2c(C)nn(C)c2Nc2ccc(OC)cc2[N+](=O)[O-])c(F)c1 [compound 161] | 0 | 100 | 100 | 100 | 99 | 100
COc1cc(F)c(-c2c(C)nn(C)c2Nc2c(C)cccc2[N+](=O)[O-])c(F)c1 [compound 162] | 77 | 100 | 97 | 99 | 98 | 100
Cc1nn(C)c(Nc2c(Cl)cccc2[N+](=O)[O-])c1-c1c(F)cc(F)cc1Br [compound 163] | 78 | 100 | 88 | 98 | 76 | 99
COc1ccc(Nc2c(-c3c(F)cc(F)cc3Br)c(C)nn2C)c([N+](=O)[O-])c1 [compound 164] | 0 | 100 | 100 | 98 | 99 | 100
COc1cc(F)c(Nc2c(-c3ccc(F)cc3Br)c(C)nn2C)c([N+](=O)[O-])c1 [compound 165] | 94 | 100 | 100 | 98 | 100 | 99
COc1cc(F)c(Nc2c(-c3ccc(C#N)cc3Cl)c(C)nn2C)c([N+](=O)[O-])c1 [compound 166] | 98 | 100 | 99 | 98 | 100 | 99
Cc1cccc([N+](=O)[O-])c1Nc1c(-c2c(F)cc(F)cc2F)c(C)nn1C [compound 167] | 65 | 100 | 95 | 98 | 98 | 100
Cc1nn(C)c(Nc2ccccc2[N+](=O)[O-])c1-c1c(F)cc(Cl)cc1F [compound 168] | 0 | 74 | 99 | 97 | 40 | 100
Cc1cccc([N+](=O)[O-])c1Nc1c(-c2c(F)cc(F)cc2Br)c(C)nn1C [compound 169] | 0 | 100 | 98 | 100 | 0 | 100
CCc1nn(C)c(Nc2c(F)cccc2[N+](=O)[O-])c1-c1c(F)cc(Cl)cc1F [compound 170] | 0 | 99 | 100 | 99 | 99 | 100
CCc1nn(C)c(Nc2c(F)cc(Br)cc2[N+](=O)[O-])c1-c1ccc(F)cc1F [compound 171] | 0 | 91 | 97 | 99 | 88 | 100
CCc1nn(C)c(Nc2ccc(OC)cc2[N+](=O)[O-])c1-c1ccc(F)cc1Cl [compound 173] | 0 | 100 | 98 | 98 | 93 | 100
CCc1nn(C)c(Nc2ccc(C)cc2[N+](=O)[O-])c1-c1ccc(F)cc1Cl [compound 174] | 0 | 95 | 99 | 92 | 39 | 100
CCc1nn(C)c(Nc2ccc(C)cc2[N+](=O)[O-])c1-c1ccc(F)cc1F [compound 175] | 0 | 86 | 88 | 79 | 0 | 100
Cc1nn(C)c(Nc2c(Cl)cc(F)cc2[N+](=O)[O-])c1-c1ccc(Cl)cc1F [compound 176] | 0 | 97 | 9 | 0 | 0 | 100
Cc1cccc([N+](=O)[O-])c1Nc1c(-c2ccc(F)cc2F)c(C)nn1C [compound 177] | 0 | 97 | 100 | 50 | 9 | 100
Cc1cc(F)c(Nc2c(-c3ccc(F)cc3F)c(C)nn2C)c([N+](=O)[O-])c1 [compound 178] | 97 | 100 | 100 | 99 | 100 | 100
COc1ccc(Nc2c(-c3ccc(C#N)cc3F)c(C)nn2C)c([N+](=O)[O-])c1 [compound 179] | 0 | 96 | 99 | 93 | 85 | 100
COc1ccc(Nc2c(-c3ccc(C#N)cc3Br)c(C)nn2C)c([N+](=O)[O-])c1 [compound 180] | 0 | 98 | 99 | 79 | 98 | 100
Cc1cc(Cl)c(Nc2c(-c3ccc(F)cc3Br)c(C)nn2C)c([N+](=O)[O-])c1 [compound 181] | 78 | 100 | 99 | 99 | 99 | 100
COc1ccc(-c2c(C)nn(C)c2Nc2c(F)cc(Br)cc2[N+](=O)[O-])c(Cl)c1 [compound 182] | 0 | 99 | 100 | 76 | 99 | 100
COc1ccc(-c2c(C)nn(C)c2Nc2c(C)cccc2[N+](=O)[O-])c(Cl)c1 [compound 183] | 0 | 99 | 100 | 78 | 58 | 100
COc1ccc(-c2c(C)nn(C)c2Nc2c(Cl)cccc2[N+](=O)[O-])c(Cl)c1 [compound 184] | 0 | 100 | 100 | 21 | 26 | 100
CCc1nn(C)c(Nc2c(F)cc(C)cc2[N+](=O)[O-])c1-c1ccc(F)cc1F [compound 185] | 0 | 100 | 96 | 99 | 99 | 100
COc1ccc(-c2c(C)nn(C)c2Nc2c(F)cc(OC)cc2[N+](=O)[O-])c(Cl)c1 [compound 186] | 94 | 100 | 100 | 99 | 100 | 100
COc1ccc(-c2c(C)nn(C)c2Nc2ccc(OC)cc2[N+](=O)[O-])c(Cl)c1 [compound 187] | 0 | 100 | 100 | 91 | 100 | 99
